Laboratory results as given in patent publication US8354400B2, “Benzoxazole compounds and methods of use” (Eisai R&D Co., Ltd., priority 2008, dated 2013).
Entries after “also recorded” stand apart in the source; their conditions may differ.

How the values were obtained:
[1] = system: dissociated mouse splenocytes; assay: Spleen CellTiter-Glo viability assay; format: cell-based; details: Splenocyte, 72 hours, viability (ATP)
Description: (3) Spleen CT Glo Assay: To determine if compounds had adverse effects on living cells, dissociated mouse splenocytes were incubated with some of the compounds for 72 hours. At the end of the incubation Celliter-Glo™ reagent (Promega Corporation, Madison, Wis.) was added and luminescence was read per manufacturer's instructions. This reagent measures ATP as an indication of cell metabolism. Dead cells will not produce signal. IC50 is defined as the concentration of compound that suppresses viability to 50% of that observed in the absence of compound. The few compounds that measurably affected viability did so at concentrations far above those that affected cytokine release in response to TLR9 stimulation.

[2] = system: human PBMC α-interferon response to Oligo CpG 2216; assay: PBMC CpG 2216 assay (α-interferon ELISA); format: cell-based; details: Oligo CpG 2216, 72 hrs, read-out: PBMC CpG2216 IC50
Description: (4) PBMC CpG 2216 Assay: A subset of compounds tested as described above were also assayed for suppression of human peripheral blood mononuclear cells (PBMC) α-interferon response to stimulation with Oligo CpG 2216, a synthetic oligo phosphorothioate/phosphodiester oligonucleotide (Vollmer et al. Eur J. Immunol. 34:251-62 (2004)), with nucleotide sequence 5′-ggG GGA CGA TCG TCg ggg gG-3′ (small letters indicate phosphorothioate linkages, all others are phosphodiester) (SEQ ID NO:3). Each compound was added to […] from healthy volunteer donors before addition of stimulatory oligonucleotide. Cells were stimulated in culture for 72 hrs and the supernatant was removed for ELISA analysis of α-interferon level was performed using a VeriKine™ Human IFN-Alpha ELISA kit (Pestka Biomedical Laboratories, N.J.).

[3] = system: serum IL-6 after s.c. oligo CpG 1668 challenge; assay: In vivo short term CpG stimulation assay (serum IL-6); parameters: species or system mice; details: for suppression of IL-6 (Table 3): 1.5 hours after oral administration of 20 mg/kg; for inhibition in vivo at 20 mg/kg: Mus musculus, po, 2 h, mice, oral in water, s.c. 30 micrograms oligo CpG 1668 within 90 minutes, serum two hours later, repeat assays separated by commas, read-out: Percent short-term IL-6 suppression
Description: Short Term CpG Stimulation Assay: Compounds identified as having potency in the HEK/TLR9 and splenocyte CpG 1668 assays described in Example 9, above, were tested in an in vivo short term CpG stimulation assay. Mice were orally administered compound in water, and challenged within 90 minutes by subcutaneous (s.c.) injection of 30 micrograms of oligo CpG 1668. Two hours later serum was taken and assayed for IL-6 using ELISA analysis. Results from assays repeated on different dates are set forth as multiple numbers separated by commas.

[4] = system: mouse spleen IL-6 production in response to Oligo CpG 1668; assay: Splenocyte CpG 1668 assay (IL-6 ELISA); format: cell-based; details: mouse splenocytes, Oligo CpG 1668, 72 hrs
Description: (2) Splenocyte CpG 1668 Assay: Some of the compounds tested in the primary assay were also assayed for suppression of mouse spleen IL-6 production in response to stimulation with Oligo CpG 1668, a synthetic phosphorothioate oligonucleotide (Krieg et al. Nature. 374:546-9 (1995)), with nucleotide sequence [NT] (SEQ ID NO:2). Each compound was added to dissociated splenocytes before addition of stimulatory oligonucleotide. Cells were stimulated in culture for 72 hrs and the supernatant was removed for ELISA analysis of IL-6 level. Here the IC50 is defined as the concentration of compound that suppresses cytokine production to 50% of that observed in the absence of compound, i.e., full stimulation.

[5] = system: lymph node IL-6 release on CpG 1668 stimulation; assay: Lymph node response: in vivo dosing, ex vivo CpG 1668 stimulation, IL-6 ELISA; parameters: species or system mice; details: for IL-6 release in the lymph nodes: mice, oral 20 mg/kg or 60 mg/kg daily for two weeks, ex vivo CpG 1668 1 μg/ml 72 hrs
Description: Mice were orally administered one of those two compounds or hydroxychloroquine (“HCQ”) at either 20 mg/kg or 60 mg/kg daily for two weeks. After in vivo dosing, lymph nodes were removed and stimulated in vitro with CpG 1668 at 1 μg/ml for 72 hrs, after which supernatants were removed and assayed by ELISA for IL-6. Levels of dosing are indicated after each compound name appearing in the Figure.

NZBWF1/J mice = assay: NZBWF1/J spontaneous lupus model; format: in vivo; details: for anti-dsDNA: 16 weeks of treatment, 20 mg/kg or 60 mg/kg p.o.; for body weight: after 3 to 4 months of dosing; for distribution of ANA scores: after 12 weeks of treatment
Description: An in vivo study of Compound 23 and Compound 30 was conducted in an NZBWF1/J mouse model. Mice were obtained from Jackson Laboratories, divided into groups of 12, and dosed orally with compounds in water five days a week beginning at 5 months of age.

MRL/lpr mice = assay: MRL/lpr spontaneous lupus model, Experiment 2; format: in vivo; details: 12 weeks, high dose (60 mg/kg p.o.)
Description: In this SLE experiment, dosing, groups were as described in Table 4 below. Two dose levels of Compound 23 were compared to HCQ and cyclophosphamide (Cytoxan®). HCQ and cyclophosphamide are currently used in the treatment of cutaneous and systemic lupus, respectively. […] Sera were assayed at a 1:600 dilution in PBS. (Mouse Anti-dsDNA Total Ig Qualitative ELISA kits, Alpha Diagnostic International). Dosing was conducted by either oral (p.o.) or intraperitoneal (i.p.) administration.

[6] = system: MRL/MpJ-faslpr/J mice (MRL/lpr); assay: MRL/MpJ-faslpr/J spontaneous lupus model, Experiment 1; format: in vivo
Description: In this experiment, MRL/MpJ-faslpr/J mice (“MRL/lpr”) obtained from Jackson Laboratories were dosed orally with Compound 23 at 20 or 60 mg/kg in water. MRL/lpr mice have a defect in lymphocyte death and spontaneously develop autoantibodies including the anti-nuclear antibodies found in human systemic lupus erythematosus (SLE). Dosing was performed daily five days a week beginning at 5 weeks of age. Blood and urine samples were taken prior to dosing on day one and every three to four weeks thereafter. An ELISA assay was used to measure serum anti-dsDNA before and after 7 weeks of dosing. The assay was conducted using a Mouse Anti-dsDNA Total Ig Qualitative ELISA kit (Alpha Diagnostic International, San Antonio. TX).
Anti-nuclear antibodies (“ANA”) in this experiment were also examined by exposing fixed […] cells, obtained as fixed samples on slides from Antibodies Inc., to diluted serum from the mice dosed with Compound 23 at 20 or 60 mg/kg, as described above, and staining for mouse immunoglobulin using the kit reagents supplied by Antibodies Inc. according to the kit instructions. Intensity of fluorescent staining was then read by microscope, and scores were assigned values between − and +++. Sample identifications were blinded for data collection.

In the case of c1cc(-c2nc3ccc(OCCCN4CCC(N5CCCC5)CC4)cc3o2)ccc1OCCCN1CCC(N2CCCC2)CC1 [Compound 20], the IC50 [1] is reported as greater than 10000 nM, the IC50 [2] is reported as 700 nM and the “suppression of IL-6 (Table 3)” value [3] is reported as “No suppression”. It also gave an inhibition in vivo at 20 mg/kg [3] of 0% and an IC50 [4] of 6 nM.
CN(C)CCCOc1ccc(-c2nc3ccc(OCCCN(C)C)cc3o2)cc1 [Compound 2] was tested, and the IC50 [1] was greater than 10000 nM, the “IL-6 release in the lymph nodes” value [5] was “suppressed IL-6 release” and the IC50 [2] was 500 nM. The IC50 [4] was 48 nM.
c1cc(-c2nc3ccc(OCCCN4CCCCC4)cc3o2)ccc1OCCCN1CCCCC1 [Compound 30] was tested, and the “histological examination of muscle, brain, kidney and spleen (hematoxylin and eosin)” value (NZBWF1/J mice; NZBWF1/J mice) was “no obvious pathology”, the “anti-dsDNA at high dose” value (NZBWF1/J mice; NZBWF1/J mice, 60 mg/kg p.o.) was “some suppression of anti-dsDNA at the high dose of 60 mg/kg, but, this was not statistically significant” and the anti-dsDNA (NZBWF1/J mice; NZBWF1/J mice) was “Neither of the compounds tested in this study, Compound 23 or Compound 30, showed an effect on anti-dsDNA”. For the same molecule, the body weight (NZBWF1/J mice; NZBWF1/J mice) was “dose-related weight loss”, the “distribution of ANA scores” value (NZBWF1/J mice; NZBWF1/J mice) was “no effect” and the IC50 [1] was greater than 10000 nM. It also gave an IC50 [2] of 500 nM, an inhibition in vivo at 20 mg/kg [3] of 93% and an IC50 [4] of 25 nM.
c1cc(-c2nc3ccc(OCCCN4CCCC4)cc3o2)ccc1OCCCN1CCCC1 [Compound 23] was tested, and the proteinuria (NZBWF1/J mice; NZB/W mice) was “no effect”, the “histological examination of muscle, brain, kidney and spleen (hematoxylin and eosin)” value (NZBWF1/J mice; NZBWF1/J mice) was “no obvious pathology” and the anti-dsDNA (NZBWF1/J mice; NZBWF1/J mice) was “Neither of the compounds tested in this study, Compound 23 or Compound 30, showed an effect on anti-dsDNA; also recorded: no effect”. For the same molecule, the body weight (NZBWF1/J mice; NZBWF1/J mice) was “dose-related weight loss”, the “distribution of ANA scores” value (NZBWF1/J mice; NZBWF1/J mice) was “no effect” and the IC50 [1] was greater than 10000 nM. For the same molecule, the “IL-6 release in the lymph nodes, low dose” value ([5]; 20 mg/kg oral daily for two weeks) was “particularly high levels of suppression”, the “IL-6 release in the lymph nodes” value [5] was “suppressed IL-6 release” and the “difference in mean dsDNA level between vehicle and compound” value (MRL/lpr mice) was “statistically significant difference”. The “serum anti-dsDNA, mean OD450 versus vehicle” value ([6]; MRL/lpr mice, 10 weeks of dosing) was “statistical difference was still observed”, the “serum anti-dsDNA versus vehicle” value ([6]; MRL/lpr mice, 12 weeks and beyond) was “more similar to vehicle-treated animals” and the “dosage-related toxicity (general appearance, body weight)” value ([6]; MRL/lpr mice, 20 or 60 mg/kg oral) was “No evidence of dosage-related toxicity”. For the same molecule, the “serum anti-dsDNA, mean OD450 versus vehicle” value ([6]; MRL/lpr mice, 20 or 60 mg/kg oral, 7 weeks of dosing) was “statistically significant suppression”, the “anti-nuclear antibody (ANA) development” value ([6]; MRL/lpr mice, 20 or 60 mg/kg oral, 4, 10, 12 weeks of dosing) was “dose-dependent suppression of ANA development; also recorded: dose-dependent inhibition” and the “anti-dsDNA in the MRL/lpr model of SLE (summary)” value ([6]; daily oral dosing with 60 and 20 mg/kg) was “suppression of anti-dsDNA”. For the same molecule, the IC50 [2] was 600 nM, the inhibition in vivo at 20 mg/kg [3] was 91% and the IC50 [4] was 18 nM.
c1cc(CN2CCOCC2)ccc1CNCCCOc1ccc(-c2nc3ccc(OCCCNCc4ccc(CN5CCOCC5)cc4)cc3o2)cc1 [Compound 13] was tested, and the IC50 [1] was 7070 nM, the inhibition in vivo at 20 mg/kg [3] was 40% and the IC50 [4] was 3 nM.
CN1CCCN(CCCOc2ccc(-c3nc4ccc(OCCCN5CCCN(C)CC5)cc4o3)cc2)CC1 [Compound 14] was tested, and the IC50 [1] was greater than 10000 nM, the “suppression of IL-6 (Table 3)” value [3] was “No suppression” and the inhibition in vivo at 20 mg/kg [3] was 0%. It also gave an IC50 [4] of 4 nM.
With CN1CCN(c2ccc(CNCCCOc3ccc(-c4nc5ccc(OCCCNCc6ccc(N7CCN(C)CC7)cc6)cc5o4)cc3)cc2)CC1 [Compound 11] the IC50 [1] was 10000 nM, the IC50 [2] was 600 nM and the IC50 [4] was 2 nM.
CCN(CC)CCN(C)CCCOc1ccc(-c2nc3ccc(OCCCN(C)CCN(CC)CC)cc3o2)cc1 [Compound 31] gave an IC50 [1] greater than 10000 nM, an IC50 [2] of 200 nM and an IC50 [4] of 6 nM.
Work on CN(C)CCN(C)CCCOc1ccc(-c2nc3ccc(OCCCN(C)CCN(C)C)cc3o2)cc1 [Compound 22] yielded an IC50 [1] of 7110 nM, an inhibition in vivo at 20 mg/kg [3] of 36% and an IC50 [4] of 10 nM.
CN(C)CCCN(C)CCCOc1ccc(-c2nc3ccc(OCCCN(C)CCCN(C)C)cc3o2)cc1 [Compound 27] gave an IC50 [1] of 8960 nM, an inhibition in vivo at 20 mg/kg [3] of 30% and an IC50 [4] of 4 nM.
CCN(CC)CCNCCCOc1ccc(-c2nc3ccc(OCCCNCCN(CC)CC)cc3o2)cc1 [Compound 12] showed an IC50 [1] greater than 10000 nM, an IC50 [2] of 500 nM and an IC50 [4] of 4 nM.
CN(C)[C@@H]1CCN(CCCOc2ccc(-c3nc4ccc(OCCCN5CC[C@@H](N(C)C)C5)cc4o3)cc2)C1 [Compound 16] gave an IC50 [1] greater than 10000 nM, an IC50 [2] of 400 nM and an inhibition in vivo at 20 mg/kg [3] of 50%. It also gave an IC50 [4] of 8 nM.
